Tests used:
[1] = target: T1, recombinant human SP1 (Homo sapiens, UniProt P08047); assay: Effect of mismatch introduction on suppression of strand exchange, SP1 (Example 4-1); type: binding; conditions: 40 fmol SP05C/08B, 2.5 pmol SP1, 80 fmol of the added duplex or single strand, 25° C. 120 minutes (FIG. 7)
T1 construct: purchased Promega Corp
From the text: A synthetic oligonucleotide SP1-05-5C3 labeled at the 5′ terminus with Cy3 and a synthetic oligonucleotide SP1-08-3B1 labeled at the 3′ terminus with BHQ1 were mixed to prepare a duplex SP05C/08B having a single-stranded terminus under the same conditions as in Example 1. Moreover, synthetic oligonucleotides SP1-06 and SP1-07, synthetic oligonucleotides SP1-21 and SP1-22, or synthetic oligonucleotides SP1-23 and SP1-24 were mixed to prepare duplexes SP06/07, SP22/21, and SP24/23 having a single-stranded terminus under the same conditions as in Example 1. These duplexes have an SP1 binding sequence.
40 fmol of SP05C/08B and 2.5 pmol of recombinant human SP1 (Promega Corp.) were mixed into a reaction solution (10 mM HEPES-NaOH pH 7.9, 50 mM KCl, 0.1 mM EDTA, 5 mM DTT, 10% glycerol, 0.05% IGEPAL CA-630, 15 μL) and reacted at 25° C. for 30 minutes. 80 fmol of SP06/07, SP22/21, SP24/23, SP1-07, SP1-21, or SP1-23 was added thereto, and […] of the resulting mixture was then reacted at 25° C. for 120 minutes. The fluorescence value of Cy3 was measured using a fluorescence plate reader Ultra (Tecan Group Ltd.).

[2] = target: T2, recombinant human NFκB p50 (Homo sapiens, UniProt P19838); assay: Detection of NF-κB (p50) inhibitory effect of aurothioglucose (Example 5); type: binding; conditions: 0 to 5 nmol aurothioglucose, 0.5 pmol NFκB p50, duplexes 31F/42 and 32D/41, 25° C. 30 minutes, relative to absence of aurothioglucose (FIG. 9)
T2 construct: recombinant human NFκB p50 (Promega Corp.); purchased Promega Corp
T2 sequence (P19838 1-433 limits assumed): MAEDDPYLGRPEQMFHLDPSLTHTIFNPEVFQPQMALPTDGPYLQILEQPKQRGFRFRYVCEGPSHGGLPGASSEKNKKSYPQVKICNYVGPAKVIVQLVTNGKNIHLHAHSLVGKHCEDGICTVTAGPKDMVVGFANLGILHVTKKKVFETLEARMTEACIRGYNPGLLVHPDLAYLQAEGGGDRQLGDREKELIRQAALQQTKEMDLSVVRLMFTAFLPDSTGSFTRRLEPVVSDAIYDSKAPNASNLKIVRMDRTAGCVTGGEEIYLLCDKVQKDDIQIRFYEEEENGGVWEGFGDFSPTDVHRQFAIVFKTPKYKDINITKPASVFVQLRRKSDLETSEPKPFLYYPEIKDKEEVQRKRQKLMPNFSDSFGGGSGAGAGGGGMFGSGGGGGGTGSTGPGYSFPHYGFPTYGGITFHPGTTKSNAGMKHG
From the text: A synthetic oligonucleotide NFkB-42 and a synthetic oligonucleotide NFkB-31-5F labeled at the 5′ terminus with fluorescein, or a synthetic oligonucleotide NFkB-41 and a synthetic oligonucleotide NFkB-32-3D labeled at the 3′ terminus with DABCYL were mixed to prepare duplexes 31F/42 and 32D/41 having a single-stranded terminus under the same conditions as in Example 1. The duplexes 31F/42 and 32D/41 have an NF-κB binding sequence.
(§1) To a mixed solution of 31F/42 and 05C/08 (50 fmol each), 0 to 5 nmol of aurothioglucose and 0.5 pmol of recombinant human NFκB p50 (Promega Corp.) were added, and further a mixed solution of 32D/41 and 06B/07 (200 fmol each) was added. The resulting solution was mixed and reacted at 25° C. for 30 minutes. […] The fluorescence values of fluorescein and Cy3 were measured using a fluorescence plate reader Ultra (Tecan Group Ltd.). The fluorescein was excited at 485 nm, and its fluorescence was measured at 535 nm. The Cy3 was excited at 535 nm and its fluorescence was measured at 595 nm.

[3] = system: SP1/oligonucleotide; assay: Negative control of the screening system: strand exchange of a nucleic acid set that does not bind to NF-κB (Example 5); conditions: 0 to 5 nmol aurothioglucose, duplexes 05C/08 and 06B/07 as negative control, same reaction (FIG. 9)
From the text: A synthetic oligonucleotide SP1-08 and a synthetic oligonucleotide SP1-05-5C3 labeled at the 5′ terminus with Cy3, or a synthetic oligonucleotide SP1-07 and a synthetic oligonucleotide SP1-06-3B1 labeled at the 3′ terminus with BHQ1 were mixed to prepare duplexes 05C/08 and 06B/07 having a single-stranded terminus under the same conditions as in Example 1. The duplexes 05C/08 and 06B/07 have an SP1 binding sequence.
as §1

[4] = system: NF-κB; conditions: Yang et al. FEBS letters 1995, 361, 89-96; cited from earlier work

T1 sequence (P08047 whole entry): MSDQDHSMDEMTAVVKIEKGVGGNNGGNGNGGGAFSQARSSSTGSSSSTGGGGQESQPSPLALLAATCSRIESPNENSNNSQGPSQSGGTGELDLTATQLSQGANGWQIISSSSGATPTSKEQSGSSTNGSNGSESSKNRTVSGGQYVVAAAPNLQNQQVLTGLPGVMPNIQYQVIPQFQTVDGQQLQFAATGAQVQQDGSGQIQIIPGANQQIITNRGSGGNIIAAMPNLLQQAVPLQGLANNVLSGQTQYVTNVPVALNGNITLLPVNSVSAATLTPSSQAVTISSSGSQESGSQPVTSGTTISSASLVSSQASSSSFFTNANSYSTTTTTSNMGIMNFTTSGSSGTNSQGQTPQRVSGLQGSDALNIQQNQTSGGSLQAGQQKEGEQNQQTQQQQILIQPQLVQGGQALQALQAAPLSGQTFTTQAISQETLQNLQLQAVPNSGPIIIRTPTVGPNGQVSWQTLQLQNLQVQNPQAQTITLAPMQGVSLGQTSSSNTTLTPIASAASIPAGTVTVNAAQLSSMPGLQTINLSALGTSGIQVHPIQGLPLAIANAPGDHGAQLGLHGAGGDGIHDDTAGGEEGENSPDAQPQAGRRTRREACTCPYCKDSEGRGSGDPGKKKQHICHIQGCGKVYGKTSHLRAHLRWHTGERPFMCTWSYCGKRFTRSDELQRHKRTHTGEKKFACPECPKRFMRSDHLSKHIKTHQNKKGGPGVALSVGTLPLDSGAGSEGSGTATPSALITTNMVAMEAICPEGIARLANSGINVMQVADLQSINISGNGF

## SP1-07: synthetic oligonucleotide 5′ ATTCGATCGGGGCGGGGCGACGAGC AGGCTACTCTCTGACCG 3′ (SEQ ID NO: 31) (DNA ATTCGATCGGGGCGGGGCGACGAGCAGGCTACTCTCTGACCG; DNA, backbone and methylation of C not given here)
[1]
  effect of addition of SP1 on increase in fluorescence value (Cy3) caused by strand exchange: suppressed increase in fluorescence value

## OC[C@H]1O[C@H]([S-])[C@H](O)[C@@H](O)[C@@H]1O.[Au+] [aurothioglucose, Aurothioglucose]
[2]
  relative fluorescence value of the NF-κB/oligonucleotide complex: decreased depending on the concentration of aurothioglucose
[3]
  relative fluorescence value of the SP1/oligonucleotide: hardly influenced
[4]
  inhibition of NF-κB: known to inhibit NF-κB

— US20170044597A1, “ASSAY METHOD AND KIT FOR NUCLEIC ACID BINDING PROTEIN” (Hiroshima University, priority 2008, published 2017)
